Data: patent US10441669B2, “Multifunctional chelators, complexes, and compositions thereof, and methods of using same” (ILLINOIS INSTITUTE OF TECHNOLOGY, priority 2013, dated 2019)

Experiments:
[1] = EDTA challenge of 64Cu-radiolabeled pyridyl chelator; format: physicochemical; details: 37° C.; for Bound (%): Cu-64 complex, EDTA solution 100-fold molar excess
Experimental: (§1) ^64Cu- or ^177Lu-radiolabeled complexes were prepared by reaction of each chelator (20 μg) with ^64Cu or ^177Lu (60 μCi) in 0.25M NH4OAc buffer (pH 5.5) for 2 h at room temperature. The radiolabeled complexes were prepared as described above and directly used for the experiments. The radiolabeled complex was mixed with EDTA at a 100-fold molar excess. The resulting mixture was incubated for 24 h at 37° C. The stability of ^64Cu-radiolabeled complexes in the solution was evaluated using ITLC (20 mM EDTA in 0.15M NH40OAc).

[2] = Serum stability of 64Cu-radiolabeled complexes of pyridyl chelators; format: in vitro ADME; details: 64Cu complex, human serum, 37° C.
Experimental: In vitro serum stability of the radiolabeled complexes was performed to determine if the chelators radiolabeled with ^64Cu remained stable without loss of the radioactivity in human serum as described above. All ^64Cu-radiolabeled chelators remained intact in human serum for 2 days as evidenced by ITLC and HPLC analysis.

[3] = EDTA challenge of 64Cu-radiolabeled complexes of chelators A-F; format: physicochemical; details: EDTA 100-fold molar excess; for Bound complex (%): 64Cu complex, 37° C.
Experimental: ^64Cu-radiolabeled complexes were further evaluated for complex stability based on EDTA challenge. ^64Cu-radiolabeled complexes were freshly prepared and treated with a solution of EDTA at a 100-fold molar excess, and the resulting solution (pH 5.5) was incubated at 37° C. for 24 h. […] Among the complexes tested, ^64Cu-radiolabeled pentadentate chelator B was least tolerant of EDTA treated, and most of ^64Cu was dissociated from the complex (˜80%) at 24 h time point. ^64Cu-radiolabeled chelator C containing the carbonyl donor group was found dissociated rapidly in the presence of the excess EDTA, and 50% of the activity was transchelated by EDTA at 1 h time point. ^64Cu-radiolabeled chelators D and F with the respective hydroxyl and thiophenyl donor group were slower in dissociation than ^64Cu-radiolabeled chelators B and C and released >45% of ^64Cu at 24 h time point. Dissociation of the activity from the ^64Cu-radiolabeled chelators was also measured using radio-HPLC at 25 h time point (FIG. 5). The peak related to ^64Cu-EDTA (tR=2.5 min) was clearly separated from bound ^64Cu complex of the chelators. ^64Cu-radiolabeled complex of polar chelators E and F have the respective retention time at […] and 6.2 min, while other ^64Cu-radiolabeled complexes have similar retention time (tR=7˜8 min). The ^64Cu-radiolabeled chelators C and D gave a small peak (tR=˜3 min and tR=˜7 min, respectively).
^64Cu-radiolabeled complexes were prepared by reaction of each chelator (20 μg) with ^64Cu (60 μCi) in 0.25M NH4OAc buffer (pH 5.5) for 2 h at room temperature. The radiolabeled complexes were prepared as described above and directly used for the experiments. ^64Cu-radiolabeled complex was mixed with EDTA at a 100-fold molar excess. The resulting mixture was incubated for 24 h at 37° C. The stability of ^64Cu-radiolabeled complexes in the solution was evaluated using ITLC (20 mM EDTA in 0.15M NH4OAc). A solution of the radiolabeled complex in serum (3˜20 μL) was withdrawn at the designated time points and evaluated by ITLC as described above. Stability of the complexes was also evaluated at 25 h time point by HPLC (solvent A: 0.1% TFA in H2O, solvent B: 0.1% TFA in CH3CN, 0-100% B/15 min, flow rate: 1 mL/min). ^64Cu-EDTA complex was eluted early (tR=˜2.5 min), while ^64Cu-radiolabeled complexes of chelators A-D, E, and F have the respective retention time (tR=7˜8 min, tR=4.6 min, and tR=6.2 min).

[4] = EDTA challenge of 177Lu-radiolabeled pyridyl chelators; format: physicochemical; details: 37° C.; for stability of 177Lu complex in EDTA solution: EDTA 100-fold molar excess, 24 h; for Bound (%): Lu-177 complex, EDTA solution 100-fold molar excess
Experimental: as §1

[5] = In vitro serum stability of 177Lu-radiolabeled bimodal chelator complexes; format: in vitro ADME; details: 177Lu complex, human serum, pH 7, 37° C.
[6] = In vitro serum stability of 90Y-radiolabeled bimodal chelator complexes; format: in vitro ADME; details: 90Y complex, human serum, pH 7, 37° C.
Experimental: Human serum was purchased from Gemini Bioproducts (#100110). The radiolabeled complexes was prepared and directly used for serum stability studies without further purification. The stability of the pure radiolabeled complexes in human serum was evaluated at 37° C. for 2 weeks. The serum stability of the radiolabeled complexes was assessed by measuring the transfer of the radionuclide from each complex to serum proteins using ITLC (acetonitrile/water (3:2 v/v). A solution of the radiolabeled complex in serum (5-16 μL for ITLC) was withdrawn at the designated time point and evaluated by ITLC. At each of the time points, the percentage of ^90Y released from each of the radiolabeled complexes into serum was assessed by ITLC.

Row | Structure (SMILES) | Bound complex (%) ([2]; pH 7, HPLC, 0 hour) | Bound complex (%) ([2]; pH 7, HPLC, 19 hour) | Bound complex (%) ([2]; pH 7, HPLC, 48 hour) | Bound complex (%) ([2]; pH 7, ITLC, 0 hour) | Bound complex (%) ([2]; pH 7, ITLC, 19 hour) | Bound complex (%) ([2]; pH 7, ITLC, 48 hour) | Bound complex (%) ([3]; pH 5.5, ITLC, 0 h) | Bound complex (%) ([3]; pH 5.5, ITLC, 1 h) | Bound complex (%) ([3]; pH 5.5, ITLC, 4 h) | Bound complex (%) ([3]; pH 5.5, ITLC, 19 h) | Bound complex (%) ([3]; pH 5.5, ITLC, 24 h) | Bound complex (%) ([3]; pH 5.5, radio-HPLC, 25 h) | also measured
1 | NCCCNC(=O)c1ccc(CN2CCN(CC(=O)O)CCN(CC(=O)O)CC2)nc1 [Chelator 13] | (100 ± 0.0) % | (100 ± 0.0) % | (100 ± 0.0) % | 100.0 ± 0.07 | 100.0 ± 0.0^ % | 99.9 ± 0.07 |  |  |  |  |  |  | Bound (%) ([1]; pH 5.5, 0 hour): 100 ± 0.07%; Bound (%) ([1]; pH 5.5, 1 hour): 99.9 ± 0.07%; Bound (%) ([1]; pH 5.5, 24 hour): 99.2 ± 0.42%; stability of 64Cu complex in EDTA challenge ([1]; EDTA 100-fold molar excess, 24 h): extremely stable in EDTA challenge
2 | O=C(O)CN1CCN(CC(=O)O)CCN(CC(O)CCc2ccc([N+](=O)[O-])cc2)CC1 (stereo not drawn) [Chelator D, 2-[4-(carboxymethyl)-7-[2-hydroxy-4-(4-nitrophenyl)butyl]-1,4,7-triazonan-1-yl]acetic acid] |  |  |  |  |  |  | 99.5 ± 0.3 | 86.8 ± 0.7 | 79.1 ± 0.4 | 59.3 ± 0.0 | 55.0 ± 0.6 | 41.0 ± 2.6 | 
3 | O=C(O)CN1CCN(CC(=O)O)CCN(Cc2cccs2)CC1 [Chelator F, 2-[4-(carboxymethyl)-7-(thiophen-2-ylmethyl)-1,4,7-triazonan-1-yl]acetic acid] |  |  |  |  |  |  | 100 ± 0.1 | 95.7 ± 0.5 | 87.5 ± 0.4 | 59.5 ± 0.6 | 53.4 ± 1.7 | 42.3 ± 0.3 | 
4 | O=C(O)CN1CCN(CC(=O)O)CCN(CC(=O)CCc2ccc([N+](=O)[O-])cc2)CC1 [Chelator C, 2-[4-(carboxymethyl)-7-[4-(4-nitrophenyl)-2-oxobutyl]-1,4,7-triazonan-1-yl]acetic acid] |  |  |  |  |  |  | 97.7 ± 0.2 | 50.4 ± 0.4 | 45.8 ± 1.5 | 41.0 ± 0.4 | 39.0 ± 0.2 | 21.7 ± 1.3 | 64Cu activity transchelated by EDTA ([3]; 1 h time point): 50%
5 | NCCCNC(=O)c1ccc(CN(CCN2CCN(CC(=O)O)CCN(CC(=O)O)CC2)CC(=O)O)nc1 [Chelator 10] | (98.3 ± 2.0) % | (96.7 ± 0.0) % | (97.2 ± 0.21) % | 99.9 ± 0.07 | 99.8 ± 0.14% | 99.9 ± 0.0 |  |  |  |  |  |  | stability of 177Lu complex in EDTA solution [4]: remained stable in EDTA solution without releasing significant amount of the radioactivity; Bound (%) ([4]; pH 5.5, 0 hour): 99.8%; Bound (%) ([4]; pH 5.5, 1 hour): 95.7%; Bound (%) ([4]; pH 5.5, 6 hour): 94.9%; Bound (%) ([4]; pH 5.5, 24 hour): 94.6%
6 | O=C(O)CN1CCN(CCN(CC(=O)O)CC(=O)O)CCN(CC(CCCc2ccc([N+](=O)[O-])cc2)N(CC(=O)O)CC(=O)O)CC1 (stereo not drawn) [Chelator 1] |  |  |  |  |  |  |  |  |  |  |  |  | Bound radiolabeled complex (%) ([5]; 0 hour): 100 ± 0.07%; Bound radiolabeled complex (%) ([5]; 312 hour): 100 ± 0.00%; Bound radiolabeled complex (%) ([6]; 0 hour): 100 ± 0.00%; Bound radiolabeled complex (%) ([6]; 262 hour): 98.9 ± 1.34%; Bound radiolabeled complex (%) ([6]; 286 hour): 97.3 ± 2.92%; Bound radiolabeled complex (%) ([6]; 313 hour): 97.2 ± 2.46%; Bound radiolabeled complex (%) ([6]; 336 hour): 98.4 ± 0.67%
7 | O=C(O)CN(CCN1CCN(CCN(CC(=O)O)CC(=O)O)CCN(CC(CCCc2ccc([N+](=O)[O-])cc2)N(CC(=O)O)CC(=O)O)CC1)CC(=O)O (stereo not drawn) [Chelator 2, 2-{[2-(4-{2-[bis(carboxymethyl)amino]-5-(4-nitrophenyl)pentyl}-7-{2-[bis(carboxy-methyl)amino]ethyl}-1,4,7-triazonan-1-yl)ethyl](carboxymethyl)amino}acetic acid] |  |  |  |  |  |  |  |  |  |  |  |  | Bound radiolabeled complex (%) ([5]; 0 hour): 99.9 ± 0.0%
8 | O=C(O)CN1CCN(CCCc2ccc([N+](=O)[O-])cc2)CCN(CC(=O)O)CC1 [Chelator B, 2-[4-(carboxymethyl)-7-[3-(4-nitrophenyl)propyl]-1,4,7-triazonan-1-yl]acetic acid] |  |  |  |  |  |  | 99.9 ± 0.1 | 90.4 ± 0.1 | 69.2 ± 0.3 | 22.9 ± 2.1 | 19.4 ± 1.1 | 11.9 ± 0.6 | 64Cu activity dissociated from the complex / transferred to EDTA ([3]; 24 h time point): ~80%
9 | O=C(O)CN1CCN(CCN(CC(=O)O)Cc2ccccn2)CCN(CC(=O)O)CC1 [Chelator 4] | (99.9 ± 0.0) % | (99.9 ± 0.07) % | (100.0 ± 0.0) % | 99.9 ± 0.0 | 100 ± 0.0% | 100 ± 0.07 |  |  |  |  |  |  | stability of 177Lu complex in EDTA solution [4]: remained stable in EDTA solution without releasing significant amount of the radioactivity; Bound (%) ([4]; pH 5.5, 0 hour): 99.8%; Bound (%) ([4]; pH 5.5, 1 hour): 99.5%; Bound (%) ([4]; pH 5.5, 6 hour): 99.2%; Bound (%) ([4]; pH 5.5, 24 hour): 98.3%
